According to US5527815A, “Carboxymethylidenecycloheptimidazole derivatives, method of manufacturing the same and therapeutic agents containing these compounds” (Kotobuki Seiyaku Co., Ltd., priority 1993, dated 1996):

Columns and labels:
[1] = molecular target: T1, Angiotensin II receptor (Oryctolagus cuniculus, UniProt P34976); experiment: AII receptor antagonistic activity: inhibition of angiotensin II induced contraction of isolated rabbit thoracic aorta; format: cell-based; conditions: isolated rabbit thoracic aorta contracted by angiotensin II; for Kb: from dose-response curve (Schild), read-out: pA2 (converted); for pD2': Van Rossum method, values shown in parenthesis
T1 construct: Rabbit thoracic aorta is isolated, contracted by angiotensin II; from tissue; host or cells: rabbit thoracic aorta
T1 sequence (P34976 1-359): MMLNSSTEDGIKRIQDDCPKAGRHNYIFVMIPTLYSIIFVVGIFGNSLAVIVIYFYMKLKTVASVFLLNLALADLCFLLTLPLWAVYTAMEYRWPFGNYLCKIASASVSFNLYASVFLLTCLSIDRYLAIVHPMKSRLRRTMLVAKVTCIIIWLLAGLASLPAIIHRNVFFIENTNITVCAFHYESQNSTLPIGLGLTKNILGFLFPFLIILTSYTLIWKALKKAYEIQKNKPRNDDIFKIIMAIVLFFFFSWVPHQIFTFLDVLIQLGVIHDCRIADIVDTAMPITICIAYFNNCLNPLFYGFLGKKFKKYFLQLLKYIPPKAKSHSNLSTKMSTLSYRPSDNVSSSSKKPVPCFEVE
Experimental: [AII receptor antagonistic activity]
Angiotensin II receptor activity experiments are carried out according to P. C. Wong et al. (Hypertension 15, 823 (1990)).
Rabbit thoracic aorta is isolated, contracted by angiotensin II. The inhibition of contraction by the compound of formula (1) is expressed as pA2 from dose-response curve (Schild, Brit. J. Pharmacol. 14, 48 (1959)) or expressed as pD2 ' according to the method of J. M. Van Rossum (Arch. Intern. Pharmacodyn., 143, 229 (1963)).

[2] = tested on: pressor responses to AII; experiment: Inhibition of AII induced blood pressure increase in rats; format: in vivo; conditions: Rattus norvegicus, po, test compound 0.3 mg/kg orally, AII 30 ng/kg i.v., pressor responses measured at set times
Experimental: [Inhibition of All induced Blood Pressure Increase]
Carotid artery and left femoral vein in rats were cannulated. Next day, the carotid catheter was connected to a pressure transducer for monitoring arterial blood pressure. After the measurement of AII (30 ng/kg, i.v.) pressor responses, test compounds (0.3 mg/kg) were administered orally.
Thereafter, the pressor responses to AII at set times were measured and the inhibition percent was calculated according to the comparison of the pressor responses.

SMILES | Kb [1] [nM] | pD2' [1] | inhibition in vivo at 0.3 mg/kg [2] [%]
CCOC(=O)/C=C1\CCCCc2nc(C)n(Cc3ccc(-c4ccccc4-c4nnn[nH]4)cc3)c21 [Compound 2, 2-Methyl-8-ethoxycarbonylmethylidene-1-[(2'-(1H-tetrazole-5-yl)biphenyl-4-yl)methyl]-4,5,6,7-tetrahydro-cycloheptimidazole] | 36.3 |  | 
CCOC(=O)/C=C1\CCCCc2nc(CC)n(Cc3ccc(-c4ccccc4-c4nnn[nH]4)cc3)c21 [Compound 3, 2-Ethyl-8-ethoxycarbonylmethylidene-1-[(2'-(1H-tetrazole-5-yl)biphenyl-4-yl)methyl]-4,5,6,7-tetrahydro-cycloheptimidazole] |  | 9.00 | 
CCCc1nc2c(n1Cc1ccc(-c3ccccc3-c3nnn[nH]3)cc1)/C(=C/C(=O)OCC)CCCC2 [Compound 4, 2-Propyl-8-ethoxycarbonylmethylidene-1-[(2'-(1H-tetrazole-5-yl)biphenyl-4-yl)methyl]-4,5,6,7-tetrahydro-cycloheptimidazole] |  | 8.40 | 50 to 70
CCOC(=O)/C=C1\CC(C(C)C)CCc2nc(CC)n(Cc3ccc(-c4ccccc4-c4nnn[nH]4)cc3)c21 (stereo not shown) [Compound 7, 2-Ethyl-6-isopropyl-8-ethoxycarbonylmethylidene-1-[(2'-(1H-tetrazole-5yl)biphenyl-4-yl)methyl]-4,5,6,7-tetrahydro-cycloheptimidazole] |  |  | ≥ 70
CCCc1nc2c(n1Cc1ccc(-c3ccccc3-c3nn[nH]n3)cc1)CCCC/C2=C\C(=O)O [Compound 14, 2-Propyl-4-carboxymethylidene-1-[(2'-(1H-tetrazole-5-yl)biphenyl-4-yl)methyl]-5,6,7,8-tetrahydro-cycloheptimidazole] | 0.158 |  | 
Cc1nc2c(n1Cc1ccc(-c3ccccc3-c3nnn[nH]3)cc1)/C(=C/C(=O)O)CCCC2 [Compound 15, 2-Methyl-8-carboxymethylidene-1-[(2'-(1H-tetrazole-5-yl)biphenyl-4-yl)methyl]-4,5,6,7-tetrahydro-cycloheptimidazole] |  | 9.91 | 
CCc1nc2c(n1Cc1ccc(-c3ccccc3-c3nnn[nH]3)cc1)/C(=C/C(=O)O)CCCC2 [Compound 16, 2-Ethyl-8-carboxymethylidene-1-[(2'-(1H-tetrazole-5-yl)biphenyl-4-yl)methyl]-4,5,6,7-tetrahydro-cycloheptimidazole] |  | 9.91 | ≥ 70
CCCc1nc2c(n1Cc1ccc(-c3ccccc3-c3nnn[nH]3)cc1)/C(=C/C(=O)O)CCCC2 [Compound 17, 2-Propyl-8-carboxymethylidene-1-[(2'-(1H-tetrazole-5-yl)biphenyl-4-yl)methyl]-4,5,6,7-tetrahydro-cycloheptimidazole] |  | 9.86 | 50 to 70
CCCCc1nc2c(n1Cc1ccc(-c3ccccc3-c3nnn[nH]3)cc1)/C(=C/C(=O)O)CCCC2 [Compound 18, 2-Butyl-8-carboxymethylidene-1-[(2'-(1H-tetrazole-5-yl)biphenyl-4-yl)methyl]-4,5,6,7-tetrahydro-cycloheptimidazole] |  | 9.03 | 
CCCCCc1nc2c(n1Cc1ccc(-c3ccccc3-c3nn[nH]n3)cc1)/C(=C/C(=O)O)CCCC2 [Compound 19, 2-Pentyl-8-carboxymethylidene-1-[(2'-(1H-tetrazole-5-yl)biphenyl-4-yl)methyl]-4,5,6,7-tetrahydro-cycloheptimidazole] | 1.51 |  | 
CCc1nc2c(n1Cc1ccc(-c3ccccc3-c3nnn[nH]3)cc1)/C(=C/C(=O)O)CC(C(C)C)CC2 (stereo not shown) [Compound 20, 2-Ethyl-6-isopropyl-8-carboxymethylidene-1-[(2'-(1H-tetrazole-5-yl)biphenyl-4-yl)methyl]-4,5,6,7-tetrahydro-cycloheptimidazole] |  | 9.04 | 
CCCc1nc2c(n1Cc1ccc(-c3ccccc3-c3nnn[nH]3)cc1)/C(=C/C(=O)O)CC(C(C)C)CC2 (stereo not shown) [Compound 21, 2-Propyl-6-isopropyl-8-carboxymethylidene-1-[(2'-(1H-tetrazole-5-yl)biphenyl-4-yl)methyl]-4,5,6,7-tetrahydro-cycloheptimidazole] |  | 9.08 | 
Cc1nc2c(n1Cc1ccc(-n3cccc3-c3nn[nH]n3)cc1)/C(=C/C(=O)O)CCCC2 [Compound 22, 2-Methyl-8-carboxymethylidene-1-[4-(1H-pyrrole-2-(1H-tetrazole-5-yl)phenyl)methyl]-4,5,6,7-tetrahydro-cycloheptimidazole] | 1.26 |  | 
CCc1nc2c(n1Cc1ccc(-n3cccc3-c3nnn[nH]3)cc1)/C(=C/C(=O)O)CCCC2 [Compound 23, 2-Ethyl-8-carboxymethylidene-1-[4-(1H-pyrrole-2-(1H-tetrazole-5-yl)phenyl)methyl]-4,5,6,7-tetrahydro-cycloheptimidazole] |  | 9.60 | 
CCCc1nc2c(n1Cc1ccc(-n3cccc3-c3nn[nH]n3)cc1)/C(=C/C(=O)O)CCCC2 [Compound 24, 2-Propyl-8-carboxymethylidene-1-[4-(1H-pyrrole-2-(1H-tetrazole-5-yl)phenyl)methyl]-4,5,6,7-tetrahydro-cycloheptimidazole] | 0.158 |  | 
CCCCc1nc2c(n1Cc1ccc(-c3ccccc3-c3nnn[nH]3)cc1)/C(=C/C(=O)O)CC(C(C)C)CC2 (stereo not shown) [Compound 25, 2-Butyl-6-isopropyl-8-carboxymethylidene-1-[(2'-(1H-tetrazole-5-yl)biphenyl-4-yl)methyl]-4,5,6,7-tetrahydro-cycloheptimidazole] |  | 8.88 | 
CCCCc1nc2c(n1Cc1ccc(-n3cccc3-c3nn[nH]n3)cc1)/C(=C/C(=O)O)CCCC2 [Compound 26, 2-Butyl-8-carboxymethylidene-1-[4-(1H-pyrrole-2-(1H-tetrazole-5-yl)phenyl)methyl]-4,5,6,7-tetrahydro-cycloheptimidazole] | 0.501 |  | 
CCCc1nc2c(n1Cc1ccc(-c3ccccc3-c3nnn[nH]3)cc1)/C(=C/C(=O)OC(C)OC(=O)OCC)CCCC2 (stereo not shown) [Compound 27, 2-Propyl-8-(1-ethoxycarbonyloxy)ethoxycarbonylmethylidene-1-[(2'-(1H-tetrazole-5-yl)biphenyl-4-yl)methyl]-4,5,6,7-tetrahydro-cycloheptimidazole] |  | 8.45 | 
CCCc1nc2c(n1Cc1ccc(-c3ccccc3-c3nnn[nH]3)cc1)/C(=C/C(=O)OC(C)OC(=O)OC1CCCCC1)CCCC2 (stereo not shown) [Compound 28] |  |  | ≥ 70
CCc1nc2c(n1Cc1ccc(-c3ccccc3-c3nnn[nH]3)cc1)/C(=C/C(=O)OC(C)OC(=O)OC(C)C)CCCC2 (stereo not shown) [Compound 30, 2-Ethyl-8-(1-isopropoxycarbonyloxy)ethoxycarbonylmethylidene-1-[(2'-(1H-tetrazole-5-yl)biphenyl-4-yl)methyl]-4,5,6,7-tetrahydro-cycloheptimidazole] |  | 8.11 | 
CCc1nc2c(n1Cc1ccc(-c3ccccc3-c3nnn[nH]3)cc1)/C(=C/C(=O)OC(C)OC(=O)OC(C)C)CC(C(C)C)CC2 (stereo not shown) [Compound 31, 2-Ethyl-6-isopropyl-8-(1-isopropoxycarbonyloxy)ethoxycarbonylmethylidene-1-[(2'-(1H-tetrazole-5-yl)biphenyl-4-yl)methyl]-4,5,6,7-tetrahydro cycloheptimidazole] |  |  | ≥ 70
CCc1nc2c(n1Cc1ccc(-n3cccc3-c3nnn[nH]3)cc1)/C(=C/C(=O)OC(C)OC(=O)OC(C)C)CCCC2 (stereo not shown) [Compound 32, 2-Ethyl-8-(1-isopropoxycarbonyloxy)ethoxycarbonylmethylidene-[4-(1H-pyrrole-2-(1H-tetrazole-5-yl)phenyl)methyl]-4,5,6,7-tetrahydro-cycloheptimidazole] |  | 9.38 | 
CCCc1nc2c(n1Cc1ccc(-c3ccccc3-c3nnn[nH]3)cc1)/C(=C/C(=O)OC(C)OC(=O)OC(C)C)CC(C(C)C)CC2 (stereo not shown) [Compound 33, 2-Propyl-6-isopropyl-8-(1-isopropoxycarbonyloxy)ethoxycarbonylmethylidene-1-[(2'-(1H-tetrazole-5-yl)biphenyl-4-yl)methyl]-4,5,6,7-tetrahydro-cycloheptimidazole] |  |  | ≥ 70
CCc1nc2c(n1Cc1ccc(-c3ccccc3-c3nnn[nH]3)cc1)/C(=C/C(=O)OC(C)OC(=O)OC1CCCCC1)CCCC2 (stereo not shown) [Compound 35] |  | 8.12 | 
CCOC(=O)OC(C)OC(=O)/C=C1\CCCCc2nc(CC)n(Cc3ccc(-c4ccccc4-c4nnn[nH]4)cc3)c21 (stereo not shown) [Compound 36, 2-Ethyl-8-(1-ethoxycarbonyloxy)ethoxycarbonylmethylidene-1-[(2'-(1H -tetrazole-5-yl)biphenyl-4yl)methyl]-4,5,6,7-tetrahydro-cycloheptimidazole] |  | 8.59 | 
